Laboratory results reported in PubChem BioAssay (NCI).
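96-well plates; 48 h exposure; 5 concentrations. Endpoints by linear interpolation between flanking doses. Not reached: highest tested concentration assigned. TGI is the concentration that stops growth completely.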

What was measured:
Test in all cases: inhibition of tumour cell growth, NCI panel, 48 h
NCI/ADR-RES ovarian = test system: NCI/ADR-RES ovarian
HT29 colon = test system: HT29 colon
HS 578T breast = test system: HS 578T breast
HL-60(TB) leukemia = test system: HL-60(TB) leukemia
ACHN renal = test system: ACHN renal
UACC-62 melanoma = test system: UACC-62 melanoma
SNB-19 CNS = test system: SNB-19 CNS
T-47D breast = test system: T-47D breast
OVCAR-5 ovarian = test system: OVCAR-5 ovarian
HOP-92 NSCLC = test system: HOP-92 NSCLC
K-562 leukemia = test system: K-562 leukemia
DU-145 prostate = test system: DU-145 prostate
NCI-H226 lung = test system: NCI-H226 lung
MDA-MB-231 breast = test system: MDA-MB-231 breast
OVCAR-8 ovarian = test system: OVCAR-8 ovarian
MOLT-4 leukemia = test system: MOLT-4 leukemia
A549 NSCLC = test system: A549 NSCLC
SK-MEL-2 melanoma = test system: SK-MEL-2 melanoma
HCT-15 colon = test system: HCT-15 colon
786-0 renal = test system: 786-0 renal
NCI-H522 lung = test system: NCI-H522 lung
UACC-257 melanoma = test system: UACC-257 melanoma
M14 melanoma = test system: M14 melanoma
NCI-H460 lung = test system: NCI-H460 lung
U251 CNS = test system: U251 CNS
SW-620 colon = test system: SW-620 colon
PC-3 prostate = test system: PC-3 prostate
IGROV1 ovarian = test system: IGROV1 ovarian
SF-268 CNS = test system: SF-268 CNS
A498 renal = test system: A498 renal
HOP-62 NSCLC = test system: HOP-62 NSCLC
TK-10 renal = test system: TK-10 renal
KM12 colon = test system: KM12 colon
OVCAR-3 ovarian = test system: OVCAR-3 ovarian
MDA-MB-435 = test system: MDA-MB-435
CAKI-1 renal = test system: CAKI-1 renal
OVCAR-4 ovarian = test system: OVCAR-4 ovarian
BT-549 breast = test system: BT-549 breast
HCT-116 colon = test system: HCT-116 colon
SK-MEL-28 melanoma = test system: SK-MEL-28 melanoma
UO-31 renal = test system: UO-31 renal
RXF 393 renal = test system: RXF 393 renal
SK-MEL-5 melanoma = test system: SK-MEL-5 melanoma
MDA-N = test system: MDA-N
CCRF-CEM leukemia = test system: CCRF-CEM leukemia
MALME-3M melanoma = test system: MALME-3M melanoma
EKVX NSCLC = test system: EKVX NSCLC
NCI-H23 lung = test system: NCI-H23 lung
SN12C renal = test system: SN12C renal
LOX IMVI melanoma = test system: LOX IMVI melanoma
SF-295 CNS = test system: SF-295 CNS
RPMI-8226 leukemia = test system: RPMI-8226 leukemia
MCF7 breast = test system: MCF7 breast
HCC-2998 colon = test system: HCC-2998 colon
SR leukemia = test system: SR leukemia
SK-OV-3 ovarian = test system: SK-OV-3 ovarian
COLO 205 colon = test system: COLO 205 colon
SNB-75 CNS = test system: SNB-75 CNS
SF-539 CNS = test system: SF-539 CNS

`CC1CCC(O)(C(C)(C(=O)O)c2ccccc2)CC1` (centres undefined) was tested, and the TGI (NCI/ADR-RES ovarian) was over 100 µM, the TGI (HT29 colon) was over 100 µM and the TGI (HS 578T breast) was over 100 µM. The TGI (HL-60(TB) leukemia) was over 100 µM, the TGI (ACHN renal) was over 100 µM and the TGI (UACC-62 melanoma) was over 100 µM. For the same compound, the TGI (SNB-19 CNS) was over 100 µM, the TGI (T-47D breast) was over 100 µM and the TGI (OVCAR-5 ovarian) was over 100 µM. It also gave a TGI (HOP-92 NSCLC) of over 100 µM, a TGI (K-562 leukemia) of over 100 µM and a TGI (DU-145 prostate) of over 100 µM. The TGI (NCI-H226 lung) was over 100 µM, the TGI (MDA-MB-231 breast) was over 100 µM and the TGI (OVCAR-8 ovarian) was over 100 µM. It also gave a TGI (MOLT-4 leukemia) of over 100 µM, a TGI (A549 NSCLC) of over 100 µM and a TGI (SK-MEL-2 melanoma) of over 100 µM. The TGI (HCT-15 colon) was over 100 µM, the TGI (786-0 renal) was over 100 µM and the TGI (NCI-H522 lung) was over 100 µM. The TGI (UACC-257 melanoma) was over 100 µM, the TGI (M14 melanoma) was over 100 µM and the TGI (NCI-H460 lung) was over 100 µM. For the same compound, the TGI (U251 CNS) was over 100 µM, the TGI (SW-620 colon) was over 100 µM and the TGI (PC-3 prostate) was over 100 µM. For the same compound, the TGI (IGROV1 ovarian) was over 100 µM, the TGI (SF-268 CNS) was over 100 µM and the TGI (A498 renal) was over 100 µM. It also gave a TGI (HOP-62 NSCLC) of over 100 µM, a TGI (TK-10 renal) of over 100 µM and a TGI (KM12 colon) of over 100 µM. For the same compound, the TGI (OVCAR-3 ovarian) was over 100 µM, the TGI (MDA-MB-435) was over 100 µM and the TGI (CAKI-1 renal) was over 100 µM. The TGI (OVCAR-4 ovarian) was over 100 µM, the TGI (BT-549 breast) was over 100 µM and the TGI (HCT-116 colon) was over 100 µM. It also gave a TGI (SK-MEL-28 melanoma) of over 100 µM, a TGI (UO-31 renal) of over 100 µM and a TGI (RXF 393 renal) of over 100 µM. It also gave a TGI (SK-MEL-5 melanoma) of over 100 µM, a TGI (MDA-N) of over 100 µM and a TGI (CCRF-CEM leukemia) of over 100 µM. The TGI (MALME-3M melanoma) was over 100 µM, the TGI (EKVX NSCLC) was over 100 µM and the TGI (NCI-H23 lung) was over 100 µM. For the same compound, the TGI (SN12C renal) was over 100 µM, the TGI (LOX IMVI melanoma) was over 100 µM and the TGI (SF-295 CNS) was over 100 µM.
With `Cc1ccc(/C(=C\C(=O)C(=O)NC23CC4CC(CC(C4)C2)C3)Sc2ccccc2)cc1` the TGI (NCI/ADR-RES ovarian) was over 10 µM, the TGI (HT29 colon) was over 10 µM and the TGI (HS 578T breast) was over 10 µM. For the same compound, the TGI (HL-60(TB) leukemia) was over 10 µM, the TGI (ACHN renal) was over 10 µM and the TGI (RPMI-8226 leukemia) was over 10 µM. The TGI (MCF7 breast) was over 10 µM, the TGI (T-47D breast) was over 10 µM and the TGI (OVCAR-5 ovarian) was over 10 µM. For the same compound, the TGI (K-562 leukemia) was over 10 µM, the TGI (DU-145 prostate) was over 10 µM and the TGI (NCI-H226 lung) was over 10 µM. It also gave a TGI (MDA-MB-231 breast) of over 10 µM, a TGI (HCC-2998 colon) of over 10 µM and a TGI (OVCAR-8 ovarian) of over 10 µM. The TGI (MOLT-4 leukemia) was over 10 µM, the TGI (SK-MEL-2 melanoma) was over 10 µM and the TGI (HCT-15 colon) was over 10 µM. The TGI (786-0 renal) was over 10 µM, the TGI (SR leukemia) was over 10 µM and the TGI (SK-OV-3 ovarian) was over 10 µM. It also gave a TGI (NCI-H522 lung) of over 10 µM, a TGI (UACC-257 melanoma) of over 10 µM and a TGI (M14 melanoma) of over 10 µM. It also gave a TGI (NCI-H460 lung) of over 10 µM, a TGI (U251 CNS) of over 10 µM and a TGI (SW-620 colon) of over 10 µM. The TGI (PC-3 prostate) was over 10 µM, the TGI (IGROV1 ovarian) was over 10 µM and the TGI (SF-268 CNS) was over 10 µM. It also gave a TGI (COLO 205 colon) of over 10 µM, a TGI (A498 renal) of over 10 µM and a TGI (HOP-62 NSCLC) of over 10 µM. It also gave a TGI (TK-10 renal) of over 10 µM, a TGI (KM12 colon) of over 10 µM and a TGI (OVCAR-3 ovarian) of over 10 µM. It also gave a TGI (MDA-MB-435) of over 10 µM, a TGI (SNB-75 CNS) of over 10 µM and a TGI (CAKI-1 renal) of over 10 µM. It also gave a TGI (OVCAR-4 ovarian) of over 10 µM, a TGI (SK-MEL-28 melanoma) of over 10 µM and a TGI (UO-31 renal) of over 10 µM. The TGI (RXF 393 renal) was over 10 µM, the TGI (SK-MEL-5 melanoma) was over 10 µM and the TGI (MDA-N) was over 10 µM. The TGI (SF-539 CNS) was over 10 µM, the TGI (CCRF-CEM leukemia) was over 10 µM and the TGI (MALME-3M melanoma) was over 10 µM. It also gave a TGI (EKVX NSCLC) of over 10 µM, a TGI (NCI-H23 lung) of over 10 µM and a TGI (SN12C renal) of over 10 µM. For the same compound, the TGI (LOX IMVI melanoma) was over 10 µM and the TGI (SF-295 CNS) was over 10 µM.
